Source: patent US11672786B2, “Methods of treating diseases associated with repeat instability” (The Hospital for Sick Children, priority 2016, dated 2023)

Key:
HT1080-(CAG)850 cells = test: cellular distribution by confocal microscopy; format: cell-based, human; conditions: 50-μM NBD-labeled NA, 48 hr
Description: Scale bar represents 20 μm. […] The cell viability was estimated with WST-1 assays. Values represent the means of three independent measures±SD. […] Error bars indicate the SD of triplicate experiments. […] The dashed line indicates the peak CAG size. Allele lengths are grouped in bins spanning 10 repeats. More than 230 alleles were sized per group.
HT1080-(CAG)850 cells were incubated with 50-μM NBD-labeled NA for 48 hr and Cell Light Plasma Membrane-RFP, BacMam 2.0 (Life Technologies, Carlsbad, Calif.), then fixed for 15 min at RT with 4% paraformaldehyde and washed 2 times for 10 min in phosphate buffered saline (PBS). Cells were mounted with Vectashield hard-set mounting media that contains DAPI (Vector Laboratories, Burlingame, Calif.). Fluorescence images were obtained using Olympus FV1000D confocal laser scanning microscope (Olympus, Tokyo, Japan).

CAG expansions = conditions: by unknown processes; cited from earlier work

| SMILES | cellular distribution (HT1080-(CAG)850 cells) | effect on CAG expansions (CAG expansions) |
| --- | --- | --- |
| Cc1ccc2ccc(NC(=O)CCN(CCCNC(=O)CCCNC(=O)CCCCCNc3ccc([N+](=O)[O-])c4nonc34)CCC(=O)NCc3ccc4ccc(=O)[nH]c4n3)nc2n1 [NBD-labeled NA, N-(4-((3-((3-((7-methyl-1,8-naphthyridin-2-yl)amino)-3-oxopropyl)(3-oxo-3-(((7-oxo-7,8-dihydro-1,8-naphthyridin-2-yl)methyl)amino)propyl)amino)propyl)amino)-4-oxobutyl)-6-((7-nitrobenzo[c][1,2,5]oxadiazol-4-yl)amino)hexanamide] | distributed throughout the nuclei and cytoplasm |  |
| CC(C)C[C@@H](/C=C/[C@H](Cc1ccccc1)C(=O)N1CCC[C@H]1C(=O)N[C@H](C(=O)N[C@@H](CCCNC(=O)OCc1ccccc1)C(=O)NC1CC(C)(C)N([O])C(C)(C)C1)C(C)C)NC(=O)OC(C)(C)C [XJB-5-131] |  | mildly suppress CAG expansions rather than induce contractions |
